Measured values from publication PMC7765375, “Novel Heme Oxygenase-1 (HO-1) Inducers Based on Dimethyl Fumarate Structure” (International Journal of Molecular Sciences, 2020).
Counter-ions that a name gives are not always drawn. Like-named read-outs stand apart in the source and are kept apart here.

Columns and labels:
HO-1 = HO-1 expression by ELISA in LX-2 cell lysates; format: cell-based, human; conditions: for fold induction at 1 µM / fold induction at 5 µM / fold induction at 10 µM: Homo sapiens, LX-2, 24 h; for fold induction at 1 µM / fold induction at 5 µM / fold induction at 10 µM / Fold Induction (ELISA): 24 h, LX-2 cells lysate, vs control group, mean ± SD of triplicate; for potency as HO-1 inducers relative to DMF: LX-2 cells, more active than DMF
Description: (§1) LX 2 cell lines were bought from American Type Culture Collection (Rockville, MD, USA). Upon defrosting, the cells were seeded in 6-well plates and maintained in a medium DMEM low glucose supplemented with 10% FBS and a 1% Penicillin and Streptomycin solution. The obtained cell cultures were left at 37 °C in an incubator with 5% CO2, and the culture medium was changed after 3 or 4 days. Sub-confluent cells were treated over a period of 24 h using various concentrations (1, 5, 10 µM) of compounds 1a–o, 2a–c, and dimethyl fumarate (DMF) previously dissolved in DMSO. Control groups were treated with only DMSO.
The commercially available ELISA kit (ADI-EKS-800, Enzo Life Sci) was used to measure heme oxygenase […] (HO-1) protein concentration in LX2 cellular lysates. The test was performed in agreement with the protocol reported by the manufacturer. Absorbance at λ = 450 nm was measured and the concentration of HO-1 was calculated from a standard curve previously created using purified HO-1 protein. Results were expressed as folds of change compared to the control group. Individual measurement was performed in triplicate and data were reported as averages.

LX-2 cells [1] = assay: MTT assay of cell viability; format: cell-based, human
Description: as §1
An MTT assay was performed to monitor cell viability, measuring the conversion of tetrazolium salt to yield colored formazan, the amount of which was proportional to the number of living cells. Regarding this assay, LX2 cells were seeded at a concentration of […] cells per well, in a 96-multiwell flat-bottomed 200 μL microplate. The optical density of each well was measured with a microplate spectrophotometer reader (Synergy HT, BioTek) at λ = 570 nm.

LX-2 cells [2] = assay: ROS assay with DCFH-DA, palmitic acid (PA)-mediated ROS production; format: cell-based, human; conditions: 24 h; for ROS production mediated by palmitic acid (PA), co-treatment: 5 μM compound + PA 300 μM, p < 0.05 vs. PA
Description: Determination of the reactive oxygen species (ROS) was performed using a fluorescent probe 2′,7′-dichlorofluorescein diacetate (DCFH-DA). The fluorescence (corresponding to the oxidized radical species 2′,7′-dichlorofluorescein, DCF) was monitored spectrofluorometrically (excitation, λ = 488 nm; emission, λ = 525 nm). Results were reported as fluorescence intensity. Concerning the experiments, the cells were seeded in 96-well plates at a density of 1 × 10^4 cells per well. Then, the cells were treated for 24 h with DMEM containing a no cytotoxic concentration of palmitic acid (PA) 300 μM in the presence or absence of compound 1b, 1l, 1m and dimethyl fumarate (DMF) (5 μM).

O=C(/C=C/C(=O)Oc1ccccc1)Oc1ccccc1 [Compound 1a, (2E)-2-Butenedioic acid, 1,4-diphenyl ester]
melting point: 164 to 165 °C | fold induction at 1 µM (HO-1; 1 μM): 6.65 ± 0.15 | fold induction at 5 µM (HO-1; 5 μM): 7.93 ± 0.18 | fold induction at 10 µM (HO-1; 10 μM): 8.16 ± 0.32 | IC50 (LX-2 cells [1]; Homo sapiens): > 50 µM

O=C(/C=C/C(=O)Oc1ccc(Cl)cc1)Oc1ccc(Cl)cc1 [Compound 1b, (2E)-2-Butenedioic acid, 1,4-bis(4-chlorophenyl) ester]
melting point: 178 to 179 °C | fold induction at 1 µM (HO-1; 1 μM): 8.81 ± 0.2 | fold induction at 5 µM (HO-1; 5 μM): 8.19 ± 0.21 | fold induction at 10 µM (HO-1; 10 μM): 11.7 ± 0.41 | potency as HO-1 inducers relative to DMF (HO-1): 2–3 fold | ROS production mediated by palmitic acid (PA), co-treatment (LX-2 cells [2]): significantly reversed the effect mediated by PA | IC50 (LX-2 cells [1]; Homo sapiens): > 50 µM

O=C(/C=C/C(=O)Oc1ccc(I)cc1)Oc1ccc(I)cc1 [Compound 1c, (2E)-2-Butenedioic acid, 1,4-bis(4-iodophenyl) ester]
melting point: 266 to 267 °C | fold induction at 1 µM (HO-1; 1 μM): 6.02 ± 0.13 | fold induction at 5 µM (HO-1; 5 μM): 7.7 ± 0.19 | fold induction at 10 µM (HO-1; 10 μM): 8.13 ± 0.23 | IC50 (LX-2 cells [1]; Homo sapiens): 20.8 ± 1.5 µM

O=C(/C=C/C(=O)Oc1ccc(C(F)(F)F)cc1)Oc1ccc(C(F)(F)F)cc1 [Compound 1d, (2E)-2-Butenedioic acid, 1,4-bis(4-trifluoromethyphenyl) ester]
melting point: 122 to 123 °C | fold induction at 5 µM (HO-1; 5 μM): 1.4 ± 0.03 | fold induction at 10 µM (HO-1; 10 μM): 0.68 ± 0.02 | IC50 (LX-2 cells [1]; Homo sapiens): > 50 µM

N#Cc1ccc(OC(=O)/C=C/C(=O)Oc2ccc(C#N)cc2)cc1 [Compound 1e, (2E)-2-Butenedioic acid, 1,4-bis(4-cyanophenyl) ester]
melting point: 230 to 232 °C | fold induction at 1 µM (HO-1; 1 μM): 3.68 ± 0.21 | fold induction at 5 µM (HO-1; 5 μM): 5.22 ± 0.11 | fold induction at 10 µM (HO-1; 10 μM): 6.5 ± 0.17 | IC50 (LX-2 cells [1]; Homo sapiens): > 50 µM

Cc1ccc(OC(=O)/C=C/C(=O)Oc2ccc(C)cc2)cc1 [Compound 1f]
melting point: 160 to 161 °C | fold induction at 1 µM (HO-1; 1 μM): 1.82 ± 0.09 | fold induction at 5 µM (HO-1; 5 μM): 3.94 ± 0.13 | fold induction at 10 µM (HO-1; 10 μM): 3.76 ± 0.15 | IC50 (LX-2 cells [1]; Homo sapiens): > 50 µM

COc1ccc(OC(=O)/C=C/C(=O)Oc2ccc(OC)cc2)cc1 [Compound 1g, (2E)-2-Butenedioic acid, 1,4-bis(4-methoxyphenyl) ester]
melting point: 180 to 181 °C | fold induction at 1 µM (HO-1; 1 μM): 0.3 ± 0.01 | fold induction at 5 µM (HO-1; 5 μM): 0.76 ± 0.02 | fold induction at 10 µM (HO-1; 10 μM): 0.9 ± 0.06 | IC50 (LX-2 cells [1]; Homo sapiens): 22.3 ± 1.8 µM

O=C(/C=C/C(=O)Oc1ccccc1C(=O)O)Oc1ccccc1C(=O)O [Compound 1h, (2E)-2-Butenedioic acid, 1,4-bis(2-carboxyphenyl) ester]
fold induction at 1 µM (HO-1; 1 μM): 6.37 ± 0.22 | fold induction at 5 µM (HO-1; 5 μM): 7.45 ± 0.21 | fold induction at 10 µM (HO-1; 10 μM): 9.95 ± 0.19 | IC50 (LX-2 cells [1]; Homo sapiens): > 50 µM

O=C(/C=C/C(=O)OCc1ccccc1)OCc1ccccc1 [Compound 1i, (2E)-2-Butenedioic acid, 1,4-bis(phenylmethyl) ester]
melting point: 59 to 61 °C | fold induction at 1 µM (HO-1; 1 μM): 3.4 ± 0.18 | fold induction at 5 µM (HO-1; 5 μM): 5.86 ± 0.19 | fold induction at 10 µM (HO-1; 10 μM): 7.34 ± 0.28 | IC50 (LX-2 cells [1]; Homo sapiens): 17.7 ± 1.3 µM

O=C(/C=C/C(=O)OCCc1ccccc1)OCCc1ccccc1 [Compound 1j, (2E)-2-Butenedioic acid, 1,4-bis(phenylethyl) ester]
melting point: 77 to 79 °C | fold induction at 1 µM (HO-1; 1 μM): 2.29 ± 0.1 | fold induction at 5 µM (HO-1; 5 μM): 5.91 ± 0.17 | fold induction at 10 µM (HO-1; 10 μM): 8.47 ± 0.33 | IC50 (LX-2 cells [1]; Homo sapiens): > 50 µM

O=C(/C=C/C(=O)OCCCc1ccccc1)OCCCc1ccccc1 [Compound 1k, (2E)-2-Butenedioic acid, 1,4-bis(phenylpropyl) ester]
fold induction at 1 µM (HO-1; 1 μM): 2.26 ± 0.09 | fold induction at 5 µM (HO-1; 5 μM): 5.98 ± 0.16 | fold induction at 10 µM (HO-1; 10 μM): 9.55 ± 0.27 | IC50 (LX-2 cells [1]; Homo sapiens): > 50 µM

O=C(/C=C/C(=O)Nc1ccccc1)Nc1ccccc1 [Compound 1l, (E)-N, N’-Diphenyl-2-butenediamide]
melting point: 332 to 333 °C | fold induction at 1 µM (HO-1; 1 μM): 6.9 ± 0.14 | fold induction at 5 µM (HO-1; 5 μM): 9.74 ± 0.25 | fold induction at 10 µM (HO-1; 10 μM): 10.2 ± 0.29 | potency as HO-1 inducers relative to DMF (HO-1): 2–3 fold | ROS production mediated by palmitic acid (PA), co-treatment (LX-2 cells [2]): significantly reversed the effect mediated by PA | IC50 (LX-2 cells [1]; Homo sapiens): > 50 µM

O=C(/C=C/C(=O)NCc1ccccc1)NCc1ccccc1 [Compound 1m, (E)-N, N’-Diphenylmethyl-2-butenediamide]
Fold Induction (ELISA) (HO-1; 5 μM, 5 µM): 14.15 ± 0.34 fold | fold induction at 1 µM (HO-1; 1 μM): > 7 | fold induction at 5 µM (HO-1; 5 μM): > 14 | fold induction at 10 µM (HO-1; 10 μM): 13.8 ± 0.35 | potency as HO-1 inducers relative to DMF (HO-1): 2–3 fold | ROS production mediated by palmitic acid (PA), co-treatment (LX-2 cells [2]): significantly reversed the effect mediated by PA | IC50 (LX-2 cells [1]; Homo sapiens): 18.6 ± 1.4 µM

COC(=O)/C=C/C(=O)Oc1ccccc1 [Compound 2a, (2E)-2-Butenedioic Acid, Methyl Phenyl Ester]
melting point: 54 to 55 °C | IC50 (LX-2 cells [1]; Homo sapiens): > 50 µM

COC(=O)/C=C/C(=O)OCc1ccccc1 [Compound 2b, (2E)-2-Butenedioic acid, methyl phenylmethyl ester]
melting point: 50 to 51 °C | fold induction at 10 µM (HO-1; 10 μM): 0.28 | IC50 (LX-2 cells [1]; Homo sapiens): > 50 µM

COC(=O)/C=C/C(=O)OCCc1ccccc1 [Compound 2c, (2E)-2-Butenedioic acid, methyl phenylethyl ester]
melting point: 44 to 45 °C | IC50 (LX-2 cells [1]; Homo sapiens): > 50 µM

COC(=O)/C=C/C(=O)OC [DMF, dimethyl fumarate]
fold induction at 1 µM (HO-1; 1 μM): 2.78 ± 0.09 | fold induction at 5 µM (HO-1; 5 μM): 7.63 ± 0.31 | fold induction at 10 µM (HO-1; 10 μM): 8.3 ± 0.23 | ROS production mediated by palmitic acid (PA), co-treatment (LX-2 cells [2]): significantly reversed the effect mediated by PA | IC50 (LX-2 cells [1]; Homo sapiens): > 50 µM

CCCCCCCCCCCCCCCC(=O)O [PA, palmitic acid, reference compound]
ROS production, PA alone (LX-2 cells [2]; PA 300 μM, p < 0.05 vs. control): increased ROS production

(E)-N, N’-Diphenylethyl-2-butenediamide [Compound 1n]
Fold Induction (ELISA) (HO-1; 1 μM): 5.82 ± 0.12 fold | Fold Induction (ELISA) (HO-1; 5 μM): 7.52 ± 0.21 fold | Fold Induction (ELISA) (HO-1; 10 μM): 8.40 ± 0.38 fold | IC50 (LX-2 cells [1]): > 50 µM

(E)-N, N’-Diphenylpropyl-2-butenediamide [Compound 1o]
Fold Induction (ELISA) (HO-1; 1 μM): 4.85 ± 0.13 fold | Fold Induction (ELISA) (HO-1; 5 μM): 6.93 ± 0.23 fold | Fold Induction (ELISA) (HO-1; 10 μM): 6.30 ± 0.21 fold | IC50 (LX-2 cells [1]): > 50 µM
